Measurements taken from ChEMBL document CHEMBL2440076, “New triarylpyrazoles as broad-spectrum anticancer agents: design, synthesis, and biological evaluation” (Eur J Med Chem, 2013).

Tests used:
Type in all cases: functional
[1] = system: UACC-62; assay: Growth inhibition of human UACC62 cells assessed as cell growth at 3X10'-7 M after 48 hrs by sulforhodamine B assay; conditions: UACC-62, 48 h, read-out: Activity
[2] = system: KM12; assay: Growth inhibition of human KM12 cells assessed as cell growth at 3X10'-7 M after 48 hrs by sulforhodamine B assay; conditions: KM12, 48 h, read-out: Activity
[3] = system: HCT-15; assay: Growth inhibition of human HCT15 cells assessed as cell growth at 3X10'-7 M after 48 hrs by sulforhodamine B assay; conditions: HCT-15, 48 h, read-out: Activity
[4] = system: TK-10; assay: Growth inhibition of human TK10 cells assessed as cell growth at 3X10'-8 M after 48 hrs by sulforhodamine B assay; conditions: TK-10, 48 h, read-out: Activity
[5] = system: SN12C; assay: Growth inhibition of human SN12C cells assessed as cell growth at 3X10'-8 M after 48 hrs by sulforhodamine B assay; conditions: read-out: Activity
[6] = system: OVCAR-8; assay: Growth inhibition of human OVCAR8 cells assessed as cell growth at 3X10'-8 M after 48 hrs by sulforhodamine B assay; conditions: OVCAR-8, 48 h, read-out: Activity
[7] = Growth inhibition of human Hs 578T cells assessed as cell growth at 3X10'-5 M after 48 hrs by sulforhodamine B assay; conditions: read-out: Activity
[8] = system: UACC-62; assay: Growth inhibition of human UACC62 cells assessed as cell growth at 3X10'-8 M after 48 hrs by sulforhodamine B assay; conditions: UACC-62, 48 h, read-out: Activity
[9] = system: UACC-257; assay: Growth inhibition of human UACC257 cells assessed as cell growth at 3X10'-8 M after 48 hrs by sulforhodamine B assay; conditions: UACC-257, 48 h, read-out: Activity
[10] = system: SK-MEL-28; assay: Growth inhibition of human SK-MEL-28 cells assessed as cell growth at 3X10'-8 M after 48 hrs by sulforhodamine B assay; conditions: SK-MEL-28, 48 h, read-out: Activity
[11] = system: Malme-3M; assay: Growth inhibition of human MALME-3M cells assessed as cell growth at 3X10'-8 M after 48 hrs by sulforhodamine B assay; conditions: read-out: Activity
[12] = Growth inhibition of human HCC2998 cells assessed as cell growth at 3X10'-8 M after 48 hrs by sulforhodamine B assay; conditions: HCC 2998, 48 h, read-out: Activity
[13] = system: NCI-H23; assay: Growth inhibition of human NCI-H23 cells assessed as cell growth at 3X10'-8 M after 48 hrs by sulforhodamine B assay; conditions: NCI-H23, 48 h, read-out: Activity
[14] = system: UO-31; assay: Growth inhibition of human UO31 cells assessed as cell growth at 3X10'-5 M after 48 hrs by sulforhodamine B assay; conditions: UO-31, 48 h, read-out: Activity
[15] = system: ACHN; assay: Growth inhibition of human ACHN cells assessed as cell growth at 3X10'-9 M after 48 hrs by sulforhodamine B assay; conditions: read-out: Activity
[16] = system: M14; assay: Growth inhibition of human M14 cells assessed as cell growth at 3X10'-5 M after 48 hrs by sulforhodamine B assay; conditions: M14, 48 h, read-out: Activity
[17] = system: SF-268; assay: Growth inhibition of human SF268 cells assessed as cell growth at 3X10'-5 M after 48 hrs by sulforhodamine B assay; conditions: SF-268, 48 h, read-out: Activity
[18] = system: HL-60(TB); assay: Growth inhibition of human HL-60(TB) cells assessed as cell growth at 3X10'-5 M after 48 hrs by sulforhodamine B assay; conditions: HL-60, 48 h, read-out: Activity
[19] = system: UACC-257; assay: Growth inhibition of human UACC257 cells assessed as cell growth at 3X10'-9 M after 48 hrs by sulforhodamine B assay; conditions: UACC-257, 48 h, read-out: Activity
[20] = system: CAKI-1; assay: Growth inhibition of human CAKI-1 cells assessed as cell growth at 3X10'-6 M after 48 hrs by sulforhodamine B assay; conditions: CAKI-1, 48 h, read-out: Activity
[21] = system: SK-MEL-28; assay: Growth inhibition of human SK-MEL-28 cells assessed as cell growth at 3X10'-6 M after 48 hrs by sulforhodamine B assay; conditions: SK-MEL-28, 48 h, read-out: Activity
[22] = system: Malme-3M; assay: Growth inhibition of human MALME-3M cells assessed as cell growth at 3X10'-6 M after 48 hrs by sulforhodamine B assay; conditions: read-out: Activity
[23] = system: SNB-19; assay: Growth inhibition of human SNB19 cells assessed as cell growth at 3X10'-6 M after 48 hrs by sulforhodamine B assay; conditions: SNB-19, 48 h, read-out: Activity
[24] = system: SNB-75; assay: Growth inhibition of human SNB75 cells assessed as cell growth at 3X10'-6 M after 48 hrs by sulforhodamine B assay; conditions: SNB-75, 48 h, read-out: Activity
[25] = system: NCI-H322M; assay: Growth inhibition of human NCI-H322M cells assessed as cell growth at 3X10'-6 M after 48 hrs by sulforhodamine B assay; conditions: read-out: Activity
[26] = system: RXF 393; assay: Growth inhibition of human RXF393 cells assessed as cell growth at 3X10'-7 M after 48 hrs by sulforhodamine B assay; conditions: RXF 393, 48 h, read-out: Activity
[27] = system: CAKI-1; assay: Growth inhibition of human CAKI-1 cells assessed as cell growth at 3X10'-7 M after 48 hrs by sulforhodamine B assay; conditions: CAKI-1, 48 h, read-out: Activity

Row | Structure (SMILES) | growth at 0.3 µM [1] [%] | growth at 0.3 µM [2] [%] | growth at 0.3 µM [3] [%] | growth at 0.03 µM [4] [%] | growth at 0.03 µM [5] [%] | growth at 0.03 µM [6] [%] | growth at 30 µM [7] [%] | growth at 0.03 µM [8] [%] | growth at 0.03 µM [9] [%] | growth at 0.03 µM [10] [%] | growth at 0.03 µM [11] [%] | growth at 0.03 µM [12] [%] | growth at 0.03 µM [13] [%] | growth at 30 µM [14] [%] | growth at 0.003 µM [15] [%] | growth at 30 µM [16] [%] | growth at 30 µM [17] [%] | growth at 30 µM [18] [%] | growth at 0.003 µM [19] [%] | growth at 3 µM [20] [%] | other results
1 | O=C(Nc1cccc(-n2cc(-c3ccncc3)c(-c3ccc(Cl)c(O)c3)n2)c1)Nc1ccc(Cl)c(Cl)c1 | 91 | 90 | 99 | 103 | 96 | 98 | -21 | 102 | 93 | 102 | 89 | 104 | 93 | 7 | 103 | -28 | -21 | 1 | 95 | 17 | growth at 3 µM [21]: 25%; growth at 3 µM [22]: 10%; growth at 3 µM [23]: 23%; growth at 3 µM [24]: 20%; growth at 3 µM [25]: 47%; growth at 0.3 µM [26]: 83%; growth at 0.3 µM [27]: 88%
2 | COc1cc(-c2nn(-c3cccc(NC(=O)c4ccc(Cl)c(C(F)(F)F)c4)c3)cc2-c2ccncc2)ccc1Cl | 92 | 95 | 94 | 93 | 99 | 98 | 5 | 99 | 102 | 100 | 78 | 95 | 92 | 11 | 99 | 19 | 23 | 23 | 93 | 44 | growth at 3 µM [21]: 49%; growth at 3 µM [22]: 20%; growth at 3 µM [23]: 66%; growth at 3 µM [24]: 44%; growth at 3 µM [25]: 73%; growth at 0.3 µM [26]: 89%; growth at 0.3 µM [27]: 85%
3 | O=C(Nc1cccc(-n2cc(-c3ccncc3)c(-c3ccc(Cl)c(O)c3)n2)c1)Nc1cccc(C(F)(F)F)c1 | 92 | 97 | 96 | 98 | 98 | 106 | 11 | 96 | 100 | 100 | 82 | 97 | 94 | 11 | 103 | -20 | -17 | 1 | 96 | 35 | growth at 3 µM [21]: 55%; growth at 3 µM [22]: 37%; growth at 3 µM [23]: 36%; growth at 3 µM [24]: 53%; growth at 3 µM [25]: 63%; growth at 0.3 µM [26]: 88%; growth at 0.3 µM [27]: 91%
